Values quoted from earlier work in patent US7881871B2, “Method for designing surfaces” (Bio-Layer Pty Limited, priority 2003, dated 2011).
Like-named read-outs stand apart in the source and are kept apart here.

How the values were obtained:
[1] = tested on: monoclonal antibodies (IgG subclasses)

## Protein G: 30,000 to 35,000 dalton protein isolated from the cell wall of beta-hemolytic Streptococci
Antibodies (Fc fragment); chicken antibodies
  affinity for antibodies: low affinity
Antibodies (Fc fragment); human, horse, cow, pig and rabbit antibodies
  affinity for antibodies: high affinity
Antibodies (Fc fragment); sheep, goat, hamster, guinea pig, rat and mouse antibodies
  affinity for antibodies: moderate affinity
[1]; human IgG1, IgG2, IgG3 and IgG4, mouse IgG1, IgG2a, IgG2b and IgG3, rat IgG2a
  affinity for monoclonal antibodies: high affinity
[1]; rat IgG1, IgG2b and IgG2c
  affinity for monoclonal antibodies: moderate or low affinity

## Protein A: 42,000 dalton cell-wall-associated protein of S. Aureus with IgG binding activity
Antibodies (Fc fragment); horse, cow and mouse antibodies
  affinity for antibodies: moderate affinity
Antibodies (Fc fragment); human, pig, rabbit and guinea pig antibodies
  affinity for antibodies: high affinity
Antibodies (Fc fragment); sheep, goat, chicken, hamster and rat antibodies
  affinity for antibodies: low or no affinity
[1]; human IgG1, IgG2, IgG3, mouse IgG2a and IgG2b
  affinity for monoclonal antibodies: high affinity
[1]; human IgG1, rat IgG1, IgG2a and IgG2b
  affinity for monoclonal antibodies: no affinity
[1]; mouse IgG1 and IgG3, rat IgG2c
  affinity for monoclonal antibodies: moderate or low affinity
